The target of assay [1] is full-length human PLD1 (Homo sapiens (Human), UniProt Q13393). The experiment in a line: Evaluation of human PLD1 enzyme inhibitory activity (Amplex Red / choline oxidase fluorescence). The following applies: for IC50: full-length human PLD1 enzyme, read-out: PLD1 IC50. It counts as biochemical. In short, it runs like this:
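N-terminally FLAG-tagged full-length human PLD1 (1-1036), expressed in Expi293F and FLAG-purified, incubated with compound (5% DMSO final) and 1,2-diheptanoyl-sn-glycero-3-phosphocholine for 60 min at room temperature in HEPES pH 7.5 buffer. Released choline detected by Amplex Red/choline oxidase/HRP fluorescence.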

The target in assay [2] is full-length human PLD2 (Homo sapiens (Human), UniProt O14939). The assay can be described thus: Evaluation of human PLD2 enzyme inhibitory activity (Amplex Red / choline oxidase fluorescence). The following applies: for IC50: full-length human PLD2 enzyme, read-out: PLD2 IC50. It counts as biochemical. The method in brief:
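Enzyme was N-terminal FLAG-tagged full-length human PLD2 (1-933), expressed in Expi293F cells and anti-FLAG purified. Compound (5% DMSO final) was incubated with enzyme (6 nmol/L solution) and 1,2-diheptanoyl-PC (6 mmol/L solution) in HEPES pH 7.5, KCl, EGTA, MgCl2, NP-40, BSA buffer for 60 min at room temperature. Choline was detected with Amplex Red/choline oxidase/HRP.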

The text below walks through data of US20240101572A1, “DIHYDROOXADIAZINONE COMPOUND AND PHARMACEUTICAL USE THEREOF” (Japan Tobacco Inc., priority 2022, published 2024).

As a reminder, the IC50 is the concentration needed to halve the response being measured. By inhibition is commonly meant the change of the read-out against control, counted positive when it falls.

Molecules are shown by their SMILES. Where two headings read alike, the source gives them in different places.

full-length human PLD2, sequence (O14939 whole entry): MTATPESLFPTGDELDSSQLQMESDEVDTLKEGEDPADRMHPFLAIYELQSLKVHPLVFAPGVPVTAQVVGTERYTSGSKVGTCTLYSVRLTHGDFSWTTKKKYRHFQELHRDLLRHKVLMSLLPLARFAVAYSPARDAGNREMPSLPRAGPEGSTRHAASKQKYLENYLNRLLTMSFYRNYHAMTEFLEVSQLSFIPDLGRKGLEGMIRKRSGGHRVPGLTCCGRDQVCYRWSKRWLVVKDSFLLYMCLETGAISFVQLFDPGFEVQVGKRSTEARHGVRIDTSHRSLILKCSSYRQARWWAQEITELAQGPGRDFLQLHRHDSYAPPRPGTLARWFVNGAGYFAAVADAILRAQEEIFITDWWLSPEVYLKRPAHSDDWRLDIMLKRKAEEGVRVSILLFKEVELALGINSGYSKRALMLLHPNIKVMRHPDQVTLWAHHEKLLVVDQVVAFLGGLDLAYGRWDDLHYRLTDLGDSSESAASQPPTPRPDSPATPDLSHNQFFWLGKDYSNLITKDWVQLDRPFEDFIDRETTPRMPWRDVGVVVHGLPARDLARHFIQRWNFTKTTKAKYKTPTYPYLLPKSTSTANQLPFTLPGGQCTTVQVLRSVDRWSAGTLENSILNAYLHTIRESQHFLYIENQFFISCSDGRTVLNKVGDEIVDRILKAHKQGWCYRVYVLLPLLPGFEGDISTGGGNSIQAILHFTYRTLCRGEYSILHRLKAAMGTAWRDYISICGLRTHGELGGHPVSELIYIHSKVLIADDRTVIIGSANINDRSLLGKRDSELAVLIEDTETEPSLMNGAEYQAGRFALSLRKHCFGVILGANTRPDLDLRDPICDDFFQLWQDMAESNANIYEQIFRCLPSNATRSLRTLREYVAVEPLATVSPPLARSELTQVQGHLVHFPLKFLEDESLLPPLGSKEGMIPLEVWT
full-length human PLD1, sequence (Q13393 other isoform, or with tags, fused parts or gaps): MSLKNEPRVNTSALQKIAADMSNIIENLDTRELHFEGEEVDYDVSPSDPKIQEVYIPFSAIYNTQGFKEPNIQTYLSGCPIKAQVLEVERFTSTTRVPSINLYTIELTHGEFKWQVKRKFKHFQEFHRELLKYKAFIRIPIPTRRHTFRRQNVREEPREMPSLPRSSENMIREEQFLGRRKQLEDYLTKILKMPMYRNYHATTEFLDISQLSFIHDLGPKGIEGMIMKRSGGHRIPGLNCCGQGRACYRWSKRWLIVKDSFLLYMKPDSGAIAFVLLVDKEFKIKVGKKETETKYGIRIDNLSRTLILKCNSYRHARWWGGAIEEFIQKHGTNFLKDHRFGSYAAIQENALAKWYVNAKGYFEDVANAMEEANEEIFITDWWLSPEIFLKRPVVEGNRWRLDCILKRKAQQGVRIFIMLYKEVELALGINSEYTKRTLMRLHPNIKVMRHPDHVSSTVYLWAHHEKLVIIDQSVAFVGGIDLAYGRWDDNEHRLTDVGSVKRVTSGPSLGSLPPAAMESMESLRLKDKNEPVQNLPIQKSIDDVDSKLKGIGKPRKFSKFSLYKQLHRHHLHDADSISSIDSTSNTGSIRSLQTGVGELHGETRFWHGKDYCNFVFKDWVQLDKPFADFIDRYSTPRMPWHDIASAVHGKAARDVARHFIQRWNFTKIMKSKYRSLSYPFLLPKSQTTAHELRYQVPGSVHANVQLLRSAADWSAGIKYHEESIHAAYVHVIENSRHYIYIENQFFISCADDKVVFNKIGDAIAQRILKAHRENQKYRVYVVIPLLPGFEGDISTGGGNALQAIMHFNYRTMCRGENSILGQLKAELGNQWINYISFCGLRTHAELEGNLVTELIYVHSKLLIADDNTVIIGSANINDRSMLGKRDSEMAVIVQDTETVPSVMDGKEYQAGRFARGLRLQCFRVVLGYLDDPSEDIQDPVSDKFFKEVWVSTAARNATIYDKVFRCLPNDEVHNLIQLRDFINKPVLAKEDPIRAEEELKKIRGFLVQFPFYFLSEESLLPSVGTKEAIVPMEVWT

Consider `CNC(=O)C(=O)N[C@@H](C)C[C@H]1CC[C@]2(CC1)OC(=O)NN=C2c1cc(C(=O)OC)ccc1Br` [Example 2-032], for which the figures for the IC50 in assay [1] and in assay [2] were 0.011 µM and below 0.01 µM, respectively.
For `C[C@@H](C[C@H]1CC[C@]2(CC1)OC(=O)NN=C2c1ccc(F)cc1Br)NC(=O)c1cn(C)nn1` [Example 76], in that order: 0.017 µM and 0.017 µM.
Consider `Cc1cc(C(=O)N[C@@H](C)CN2CCC3(CC2)OC(=O)NN=C3c2cc(C#N)ccc2Br)[nH]n1` [Example 312], for which the results for the IC50 in assay [1] and in assay [2] were 0.029 µM and below 0.01 µM, respectively.
Consider `COc1cc(C)c(C2=NNC(=O)O[C@]23CC[C@@H](C[C@H](C)NC(=O)N2CCc4cccnc4C2)CC3)cn1` [Example 258], for which the IC50 in assay [1] came out at 0.186 µM; in assay [2], 0.249 µM.
Regarding `Cc1cc(N2CCOCC2)ccc1C1=NNC(=O)O[C@]12CC[C@@H](C[C@H](C)NC(=O)NC1CC1)CC2` [Example 229], the IC50 is 0.197 µM in assay [1] and 0.31 µM in assay [2].
Take `CNC(=O)C(=O)N[C@H](C)C[C@H]1CC[C@@]2(CC1)OC(=O)NN=C2c1cc(C#N)ccc1Br` [Example 2-150]: the inhibition at 10 µM in assay [1] (read-out: human PLD1 % inhibition at 10 μM) came to 25%; in assay [1] (read-out: inhibition rate of PLD1 at 10 μM compound), 25%; in assay [2] (read-out: human PLD2 % inhibition at 10 μM), 30%; in assay [2] (read-out: inhibition rate of PLD2 at 10 μM compound), 30%.
Take `CNC(=O)C(=O)N[C@@H](C)C[C@H]1CC[C@]2(CC1)OC(=O)NN=C2c1cc(OC)ncc1Br` [Example 2-074]: the IC50 was 0.011 µM in assay [1] and below 0.01 µM in assay [2].
For `CNC(=O)C(=O)N[C@@H](C)C[C@H]1CC[C@]2(CC1)OC(=O)NN=C2c1cccc2c1OCC2` [Example 106], in that order: 0.026 µM and 0.048 µM.
The like results for `CNC(=O)C(=O)N[C@@H](C)C[C@H]1CC[C@]2(CC1)OC(=O)NN=C2c1ncccc1Br` [Example 2-013] were, in that order, 0.012 µM and below 0.01 µM.
Turning to `Cc1cc(F)ccc1C1=NNC(=O)O[C@]12CC[C@@H](C[C@H](C)NC(=O)N1CC[C@@H](c3ccccc3)C1)CC2` [Example 138], the IC50 in assay [1] is 0.774 µM; in assay [2] it was 1.4 µM.
The like results for `C[C@@H](CC1CCC2(CC1)OC(=O)NN=C2c1ccncc1Br)NC(=O)c1cc(Cl)no1` (mixture of isomers) [Example 121] were, in that order, below 0.01 µM and below 0.01 µM.
For `Cc1cc(C(=O)N[C@@H](C)C[C@H]2CC[C@]3(CC2)OC(=O)NN=C3c2ccccc2Br)[nH]n1` [Example 27], in that order: 0.014 µM and 0.013 µM.
For `CNC(=O)C(=O)N[C@@H](C)C[C@H]1CC[C@]2(CC1)OC(=O)NN=C2c1cccc(C)c1C` [Example 129], in that order: 0.018 µM and below 0.01 µM.
In the case of `Cc1cc(C(=O)N[C@@H](C)CN2CCC3(CC2)OC(=O)NN=C3c2ccc(C#N)cc2C(F)(F)F)[nH]n1` [Example 326], the values for the IC50 in assay [1] and in assay [2] were 0.054 µM and 0.038 µM, respectively.
The like results for `C[C@@H](C[C@H]1CC[C@]2(CC1)OC(=O)NN=C2c1ccc(S(C)(=O)=O)cc1Cl)NC(=O)c1cc2ccccc2o1` [Example 53] were, in that order, 0.019 µM and below 0.01 µM.
Regarding `CNC(=O)C(=O)NC[C@@H](C)N1CCC2(CC1)OC(=O)NN=C2c1ccc(C#N)cc1Br` [Example 330], the IC50 was found to be 3.15 µM in assay [1] and 0.026 µM in assay [2].
For the compound `Cc1cc(C(=O)N[C@@H](C)CN2CCC3(CC2)OC(=O)NN=C3c2ccc(F)cc2Cl)[nH]n1` [Example 93], the values for the IC50 in assay [1] and in assay [2] were 0.032 µM and below 0.01 µM, respectively.
On to `C[C@@H](CN1CCC2(CC1)OC(=O)NN=C2c1ccc(F)cc1Cl)NC(=O)c1cn(C)nn1` [Example 94], for which the results for the IC50 in assay [1] and in assay [2] were 0.068 µM and 0.06 µM, respectively.
For `C[C@@H](CN1CCC2(CC1)OC(=O)NN=C2c1ccc(F)cc1Cl)NC(=O)c1cc(C(F)(F)F)[nH]n1` [Example 100], in that order: 0.041 µM and 0.033 µM.
For `CNC(=O)C(=O)N[C@@H](C)C[C@H]1CC[C@]2(CC1)OC(=O)NN=C2c1cc(C#N)ccc1C` [Example 287], in that order: 0.013 µM and below 0.01 µM.
For `CNC(=O)C(=O)N[C@@H](C)C[C@H]1CC[C@]2(CC1)OC(=O)NN=C2c1cc(OC)c(F)cc1Br` [Example 2-050], the IC50 in assay [1] is 0.012 µM; in assay [2], below 0.01 µM.
As for `Cc1cc(F)ccc1C1=NNC(=O)O[C@]12CC[C@@H](C[C@H](C)NC(=O)N1CC3CCCCC3C1)CC2` (mixture of isomers) [Example 150], the IC50 was 0.88 µM in assay [1] and 0.64 µM in assay [2].
The like results for `C[C@@H](C[C@H]1CC[C@]2(CC1)OC(=O)NN=C2c1ccc(OC(F)(F)F)cc1Br)NC(=O)c1cc(Cl)no1` [Example 81] were, in that order, 0.012 µM and below 0.01 µM.
As for `CNC(=O)C(=O)N[C@@H](C)C[C@H]1CC[C@]2(CC1)OC(=O)NN=C2c1ccc(C#N)c(C)c1` [Example 205], the values for the IC50 in assay [1] and in assay [2] were 0.035 µM and 0.102 µM, respectively.
For `CNC(=O)C(=O)N[C@@H](C)C[C@H]1CC[C@]2(CC1)OC(=O)NN=C2c1cnc(C#N)cc1C` [Example 188], in that order: 0.044 µM and 0.033 µM.
Turning to `C[C@@H](CN1CCC2(CC1)OC(=O)NN=C2c1ccc(F)cc1)NC(=O)c1cc2cc(F)ccc2[nH]1` [Example 1], the IC50 in assay [1] is 0.033 µM; in assay [2] it was below 0.01 µM.
Regarding `C[C@@H](CN1CCC2(CC1)OC(=O)NN=C2c1cc(C#N)ccc1Br)NC(=O)C1COCCO1` (mixture of isomers) [Example 2-049], the IC50 in assay [1] was determined as 1.74 µM; in assay [2], 1.44 µM.
The like results for `CNC(=O)C(=O)N[C@@H](C)C[C@H]1CC[C@]2(CC1)OC(=O)NN=C2c1cnc(N2C[C@H]3C[C@@H]2CO3)cc1Cl` [Example 243] were, in that order, 0.024 µM and below 0.01 µM.
The like results for `CNC(=O)C(=O)N[C@@H](C)C[C@H]1CC[C@]2(CC1)OC(=O)NN=C2c1cc(F)ccc1Br` [Example 157] were, in that order, below 0.01 µM and below 0.01 µM.
`COc1cc(C)c(C2=NNC(=O)O[C@]23CC[C@@H](C[C@H](C)NC(=O)N2CCc4ccccc4C2)CC3)cn1` [Example 236]: the IC50 in assay [1] is 0.015 µM; in assay [2], below 0.01 µM.
The like results for `Cc1cc(C(=O)N[C@@H](C)C[C@H]2CC[C@]3(CC2)OC(=O)NN=C3c2cccnc2)[nH]n1` [Example 16] were, in that order, 0.926 µM and 0.968 µM.
The like results for `CNC(=O)C(=O)N[C@@H](C)C[C@H]1CC[C@]2(CC1)OC(=O)NN=C2c1cc(OCC(F)(F)F)ccc1Br` [Example 296] were, in that order, 0.013 µM and below 0.01 µM.
The like results for `C[C@@H](C[C@H]1CC[C@]2(CC1)OC(=O)NN=C2c1ccc(F)cc1I)NC(=O)NC1CC1` [Example 245] were, in that order, 0.04 µM and 0.107 µM.
As for `CNC(=O)C(=O)N[C@@H](C)C[C@]1(O)CC[C@]2(CC1)OC(=O)NN=C2c1ccc(F)cc1Br` [Example 319], the figures for the IC50 in assay [1] and in assay [2] were 2.09 µM and 0.744 µM, respectively.
The like results for `[2H]C([2H])([2H])NC(=O)C(=O)NC(C)CN1CCC2(CC1)OC(=O)NN=C2c1cc(C#N)ccc1Cl` (centres unmarked) [Example 2-008] were, in that order, 0.062 µM and 0.011 µM.
The like results for `CNC(=O)C(=O)N[C@@H](C)C[C@H]1CC[C@]2(CC1)OC(=O)NN=C2c1ccc(Br)cc1Br` [Example 60] were, in that order, below 0.01 µM and below 0.01 µM.
